Here are results for 6 substances from patent US7588752B2, “Antimicrobial peptides” (The University of Melbourne, priority 1997, dated 2009).

Assay [1] relates to Streptococcus mutans Ingbritt. The format is cell-based. The conditions noted are these: RP-HPLC of endo Glu-C digest of TCA-soluble UF whey.
Experimental: Peaks were collected and assayed for antimicrobial activity. Antimicrobial assays were carried out in liquid growth medium using sterile 96 well plates, each well having a capacity of 300 μL. The growth medium consisted of Todd Hewit broth (36.4 g/L), Yeast Extract (5.0 g/L) with 100 mmol/L potassium phosphate buffer. Routinely the pH of the growth medium was adjusted to 6.3. An inoculum of approximately 1.5×10^2 cells (Streptococcus sanguis, Streptococcus mutans, Porphyromonas gingivalis) that had been harvested during the exponential phase of growth, was added to each well. The ionophore gramicidin (40 μmol/L final concentration) was added to a series of wells as a negative control. Positive controls contained only the inoculum and the growth medium. Growth was determined over a 30 hour period after inoculation by measuring the optical density of the cell suspensions at a wavelength of 650 nm (OD650), using a microplate reader (Biorad, model 450). Growth was determined by subtracting the initial reading, taken immediately after inoculation from the final reading (maximum culture OD). […]
In assay [2] the test system is Streptococcus sanguinis (formerly S. sanguis). Put plainly: Antibacterial growth assay in liquid medium, 96 well plates, OD 650 nm. The assay is classed as cell-based. The conditions noted are these: peaks of tryptic hydrolysate of sodium caseinate. On the procedure:
Hydrolysis was terminated by the addition of 1M HCl to pH 4.6. The hydrolysate was centrifuged (11,600 g for 10 min) and then filtered through a 0.2 μm PVDF filter before being applied to a 7 μm C8 (Brownlee) reversed-phase column (4.6×220 mm). The sample was eluted using an Applied Biosystems 140 A Solvent Delivery System to generate a stepwise linear gradient from 0-20% B in 2 min followed by 20-45% B in 40 min at a flow rate of 1 ml/min. Eluant A was 0.1% (v/v) TFA in water and eluant B was 80% (v/v) acetronitrile, 0.1% (v/v) TFA in water. The eluant was monitored using an Applied Biosystems 1000S Diode Array detector at a primary wavelength of 215 nm. Peaks were collected and assayed for antimicrobial activity. […] Growth was determined over a 30 hour period after inoculation by measuring the optical density of the cell suspensions at a wavelength of 650 nm (OD650), using a microplate reader (Biorad, model 450). Growth was determined by subtracting the initial reading, taken immediately after inoculation from the final reading (maximum culture OD). […]
The antibacterial assay was conducted in sterile 96 well plates (Becton Dickinson, Melbourne, Australia). […] Growth of the bacterium was determined as the difference between the final and initial Optical Density (OD) 650 nm readings using a microplate reader (BIORAD, model 450, NSW, Australia). […]

The next assay has as its system Klebsiella pneumoniae. Conditions: concentrations as low as 0.1 μM; injected intravenously before lethal infectious challenge; cited from earlier work.
A further assay has as its system Escherichia coli. The conditions noted are these: cited from earlier work.
The test system of another assay is Staphylococuus carnosus. The conditions noted are these: cited from earlier work.

No end group written: not given here.

On to “AVESTVATLEDSPEVIESPPE [Ser(P)^149 κ-casein A (138-158)]”, for which, in assay [1], the “antimicrobial activity against S. mutans” value is “exhibited antimicrobial activity”.
Consider “Ser(P)^149 κ-casein (117-169): tryptic casein peptide, genetic variant not specified ((SEQ ID NO:12) and (SEQ ID NO:14))”, for which the “antimicrobial activity against Streptococcus sanguinis” value in assay [2] was “showed activity”.
The same measure, in the same setting: as for “DMPIQAFLLYQQPVLGPVR (bovine) [β-casein (184-202)]”, the entry is “showed activity”.
As for “TTMPLW (bovine) [αs1-casein (194-199), casein peptide of Migliore-Samour et al. (1989)]”, the “protective effect in mice against Klebsiella pneumoniae infection” value in the assay on Klebsiella pneumoniae is reported as “significant protective effect”.
Consider “PGPIPN (bovine) [β-casein (63-68), casein peptide of Migliore-Samour et al. (1989)]”, for which the “protective effect in mice against Klebsiella pneumoniae infection” value with Klebsiella pneumoniae is recorded as “significant protective effect”.
Turning to “αs2-casein (fl72-203): antibacterial peptide from bovine αs2-casein released by treating milk with glacial acetic acid (Zucht et al., 1995) (QKFALPQYLKTVYQHQKAMKPWIQPKTKVIPY; UniProt P02663 187-218, looked up, fragment)”, the “inhibition of growth of Escherichia coli” value in the assay on Escherichia coli is listed as “inhibit the growth”. In addition, the “inhibition of growth of Staphylococuus carnosus” value with Staphylococuus carnosus is recorded as “inhibit the growth”.
